From patent publication US9540384B2, “Pyrrolidino heterocycles” (Hoffmann-La Roche Inc., priority 2012, dated 2017)
Where a name gives a salt, the structure may show the parent alone.

Molecular target: human PDE10A full length (Homo sapiens (Human), UniProt Q9Y233)
Assay: human PDE10A full length Scintillation Proximity Assay (SPA)
Type: biochemical
Details: PDE10A enzyme, 50 nM cGMP + 50 nM [3H]-cGMP, 20 minutes at room temperature
Method: The following test was carried out in order to determine the activity of the compounds of the present invention. PDE10 activity of the compounds of the present invention was determined using a Scintillation Proximity Assay (SPA)-based method similar to the one previously described (Fawcett, L. et al., Proc Natl Acad Sci USA (2000) 97(7):3702-3707).
The human PDE10A full length assay was performed in 96-well micro titer plates. The reaction mixture of 50 μl contained 20 mM HEPES pH=7.5/10 mM MgCl2/0.05 mg/ml BSA (Sigma cat. #A-7906), 50 nM cGMP (Sigma, cat. #G6129) and 50 nM [3H]-cGMP (GE Healthcare, cat. #TRK392 S.A. 13.2 Ci/mmol), 3.75 ng/well PDE10A enzyme (Enzo Life Science, Lausen, Switzerland cat #SE-534) with or without a specific test compound. A range of concentrations of the potential inhibitor was used to generate data for calculating the concentration of inhibitor resulting in 50% of the effect (e.g. IC50, the concentration of the competitor inhibiting PDE10A activity by 50%). Non-specific activity was tested without the enzyme. The reaction was initiated by the addition of the substrate solution (cGMP and [3H]-cGMP) and allowed to progress for 20 minutes at room temperature. The reaction was terminated by adding 25 μl of YSi-SPA scintillation beads (GE Healthcare, cat. #RPNQ0150) in 18 mM zinc sulphate solution (stop reagent). After 1 h under shaking, the plate was centrifuged one minute at 170 g to allow beads to settle. Afterwards, radioactive counts were measured on a Perkin Elmer TopCount Scintillation plate reader.

Sequence of human PDE10A full length (Q9Y233 other isoform, or with tags, fused parts or gaps): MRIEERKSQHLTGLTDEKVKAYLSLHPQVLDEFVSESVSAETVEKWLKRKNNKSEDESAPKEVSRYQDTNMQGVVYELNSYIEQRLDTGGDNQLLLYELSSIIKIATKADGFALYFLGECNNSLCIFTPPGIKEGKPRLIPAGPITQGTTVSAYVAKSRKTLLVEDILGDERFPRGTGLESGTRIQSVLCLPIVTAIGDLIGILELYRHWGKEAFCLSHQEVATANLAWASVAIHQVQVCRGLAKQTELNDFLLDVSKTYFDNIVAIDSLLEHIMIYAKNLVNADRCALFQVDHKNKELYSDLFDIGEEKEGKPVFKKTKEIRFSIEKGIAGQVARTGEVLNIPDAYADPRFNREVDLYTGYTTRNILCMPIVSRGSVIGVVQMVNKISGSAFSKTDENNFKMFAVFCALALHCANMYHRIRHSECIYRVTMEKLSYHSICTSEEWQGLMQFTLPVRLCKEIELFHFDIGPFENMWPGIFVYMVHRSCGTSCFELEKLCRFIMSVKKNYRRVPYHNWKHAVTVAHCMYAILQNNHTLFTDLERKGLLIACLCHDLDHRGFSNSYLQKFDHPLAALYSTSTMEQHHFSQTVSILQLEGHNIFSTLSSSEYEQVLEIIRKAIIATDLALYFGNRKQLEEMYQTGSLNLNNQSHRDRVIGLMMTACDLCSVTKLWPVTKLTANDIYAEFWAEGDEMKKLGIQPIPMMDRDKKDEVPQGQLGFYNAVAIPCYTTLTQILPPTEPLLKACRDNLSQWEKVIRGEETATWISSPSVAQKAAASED

| SMILES | IC50 [nM] |
| --- | --- |
| Cc1cc(N2CCCC2)nc(/C=C/c2ccc3ccccc3n2)n1 [Example 1, (E)-2-[2-(4-Methyl-6-pyrrolidin-1-yl-pyrimidin-2-yl)-vinyl]-quinoline] | 530 |
| COc1c(C)cnc(/C=C/c2cccc(N3CCOCC3)n2)c1C [Example 2, (E)-4-(6-(2-(4-Methoxy-3,5-dimethylpyridin-2-yl)vinyl)pyridin-2-yl)morpholine] | 8000 |
| COc1c(C)cnc(/C=C/c2cccc(N3CCCC3)n2)c1C [Example 3, (E)-4-methoxy-3,5-dimethyl-2-(2-(6-(pyrrolidin-1-yl)pyridin-2-yl)vinyl)pyridine] | 790 |
| CNc1cccc(CCc2nc(-c3ccccc3)cn2C)n1 [Example 4, Methyl-{6-[2-(1-methyl-4-phenyl-1H-imidazol-2-yl)-ethyl]-pyridin-2-yl}-amine] | 4060 |
| COc1c(C)cnc(CCc2cccc(N3CCCC3)n2)c1C [Example 5, 4-Methoxy-3,5-dimethyl-2-(2-(6-(pyrrolidin-1-yl)pyridin-2-yl)ethyl)pyridine] | 610 |
| Cn1cc(-c2ccccc2)nc1CCc1cccc(N2CCCC2)n1 [Example 6, 2-(2-(1-Methyl-4-phenyl-1H-imidazol-2-yl)ethyl)-6-(pyrrolidin-1-yl)pyridine] | 1840 |
| Cn1cc(-c2ccccc2)nc1CCc1cccc(N2CCOCC2)n1 [Example 7, 4-(6-(2-(1-Methyl-4-phenyl-1H-imidazol-2-yl)ethyl)pyridin-2-yl)morpholine] | 3140 |
| Cc1nc(C)c(CCc2cccc(N3CCCC3)n2)nc1C [Example 8, 2,3,5-Trimethyl-6-(2-(6-(pyrrolidin-1-yl)pyridin-2-yl)ethyl)pyrazine] | 600 |
| Cc1oc(-c2ccccc2)nc1CCc1cccc(N2CCCC2)n1 [Example 12, 2-[2-(5-Methyl-2-phenyl-oxazol-4-yl)-ethyl]-6-pyrrolidin-1-yl-pyridine] | 2000 |
| Cn1cc(-c2ccccc2)nc1CCc1cncc(N2CCCN2)n1 [Example 14, 2-(2-(1-Methyl-4-phenyl-1H-imidazol-2-yl)ethyl)-6-(pyrazolidin-1-yl)pyrazine hydrochloride] | 120 |
| Cc1nc2ccccc2nc1OCc1cccc(N2CCCCC2)n1 [Example 15, 2-Methyl-3-((6-(piperidin-1-yl)pyridin-2-yl)methoxy)quinoxaline] | 1680 |
| Cn1ncc2c(N3CCOCC3)nc(OCc3cccc(N4CCCC4)n3)nc21 [Example 18, 4-(1-Methyl-6-((6-(pyrrolidin-1-yl)pyridin-2-yl)methoxy)-1H-pyrazolo-[3,4-d]pyrimidin-4-yl)morpholine] | 276 |
| c1cc(COc2cc(N3CCOCC3)nc(-c3ccn[nH]3)n2)nc(N2CCCC2)c1 [Example 23, 4-[2-(2H-Pyrazol-3-yl)-6-(6-pyrrolidin-1-yl-pyridin-2-ylmethoxy)-pyrimidin-4-yl]-morpholine] | 1080 |
| c1cncc(-c2nc(OCc3cccc(N4CCCC4)n3)cc(N3CCOCC3)n2)c1 [Example 24, 4-(2-(Pyridin-3-yl)-6-((6-(pyrrolidin-1-yl)pyridin-2-yl)methoxy)-pyrimidin-4-yl)morpholine] | 1630 |
| CN(C)c1nc(/C=C/c2cccc(N3CCC(CO)C3)n2)nc2ccc(Cl)cc12 (stereo not drawn) [Example 25, (E)-(1-(6-(2-(6-Chloro-4-(dimethylamino)quinazolin-2-yl)vinyl)pyridin-2-yl)pyrrolidin-3-yl)methanol] | 220 |
| O=c1[nH]c(CCc2cccc(N3CCCC3)n2)nc2cccc(Cl)c12 [Example 26, 5-Chloro-2-(2-(6-(pyrrolidin-1-yl)pyridin-2-yl)ethyl)quinazolin-4(3H)-one] | 400 |
| COc1c(Cl)ccc2nc(CCc3cccc(N4CCCC4)n3)[nH]c(=O)c12 [Example 27, 6-Chloro-5-methoxy-2-(2-(6-(pyrrolidin-1-yl)pyridin-2-yl)ethyl)-quinazolin-4(3H)-one] | 470 |
| Cc1nc2nc(CCc3cccc(N4CCCC4)n3)[nH]c(=O)c2n1C [Example 28, 7,8-Dimethyl-2-(2-(6-(pyrrolidin-1-yl)pyridin-2-yl)ethyl)-1H-purin-6(7H)-one] | 2730 |
| CC1CCC(C)N1c1cccc(CCc2nc(N(C)C)c3ccccc3n2)n1 (stereo not drawn) [Example 30, 2-(2-(6-(2,5-Dimethylpyrrolidin-1-yl)pyridin-2-yl)ethyl)-N,N-dimethylquinazolin-4-amine] | 2300 |
| CN(C)c1nc(CCc2cccc(N3CCC(O)C3)n2)nc2ccc(Cl)cc12 (stereo not drawn) [Example 31, 1-(6-(2-(6-Chloro-4-(dimethylamino)quinazolin-2-yl)ethyl)pyridin-2-yl)pyrrolidin-3-ol] | 770 |
| CN(C)c1nc(CCc2cccc(N3CCC(O)C3)n2)nc2ccccc12 (stereo not drawn) [Example 32, 1-(6-(2-(4-(Dimethylamino)quinazolin-2-yl)ethyl)pyridin-2-yl)-pyrrolidin-3-ol] | 480 |
| CN(C)c1nc(CCc2cccc(N3CCC(CO)C3)n2)nc2ccc(Cl)cc12 (stereo not drawn) [Example 33, (1-(6-(2-(6-Chloro-4-(dimethylamino)quinazolin-2-yl)ethyl)pyridin-2-yl)pyrrolidin-3-yl)methanol] | 150 |
| CN(C)c1nc(CCc2cccc(N3CCC(CO)C3)n2)nc2ccccc12 (stereo not drawn) [Example 34, (1-(6-(2-(4-(Dimethylamino)quinazolin-2-yl)ethyl)pyridin-2-yl)pyrrolidin-3-yl)methanol] | 1630 |
| CN(C)c1nc(/C=C/c2cccc(N3CCCC3=O)n2)nc2ccc(Cl)cc12 [Example 36, (E)-1-(6-(2-(6-chloro-4-(dimethylamino)quinazolin-2-yl)vinyl)pyridin-2-yl)pyrrolidin-2-one] | 820 |
| Cc1cccc2c(=O)[nH]c(CCc3cccc(N4CCCC4)n3)nc12 [Example 37, 8-methyl-2-(2-(6-(pyrrolidin-1-yl)pyridin-2-yl)ethyl)quinazolin-4(3H)-one] | 3270 |
| CN(C)c1nc(/C=C/c2cccc(N(C)CCO)n2)nc2ccc(Cl)cc12 [Example 39, (E)-2-((6-(2-(6-Chloro-4-(dimethylamino)quinazolin-2-yl)vinyl)pyridin-2-yl)(methyl)amino)ethanol] | 240 |
| CN(C)c1nc(CCc2cccc(N(C)CCO)n2)nc2ccc(Cl)cc12 [Example 40, 2-((6-(2-(6-Chloro-4-(dimethylamino)quinazolin-2-yl)ethyl)pyridin-2-yl)(methyl)amino)ethanol] | 2160 |

Now from value to compound:

| IC50 [nM] | SMILES |
| --- | --- |
| 30 | Cc1nc2ccccc2nc1OCc1cccc(N2CCCC2)n1 [Example 9, 2-Methyl-3-((6-(pyrrolidin-1-yl)pyridin-2-yl)methoxy)quinoxaline] |
| 90 | Cc1nc2ccccc2nc1/C=C/c1cccc(N2CCCC2)n1 [Example 10, 2-Methyl-3-[(E)-2-(6-pyrrolidin-1-yl-pyridin-2-yl)-vinyl]-quinoxaline] |
| 120 | Cc1nc2ccccc2nc1CCc1cccc(N2CCCC2)n1 [Example 11, 2-Methyl-3-[2-(6-pyrrolidin-1-yl-pyridin-2-yl)-ethyl]-quinoxaline] |
| 2.5 | Clc1ccc2nc(OCc3cccc(N4CCCC4)n3)nc(N3CCOCC3)c2c1 [Example 13, 4-(6-Chloro-2-((6-(pyrrolidin-1-yl)pyridin-2-yl)methoxy)quinazolin-4-yl)morpholine] |
| 50 | c1cc(COc2nc(N3CCOCC3)c3ccccc3n2)nc(N2CCCC2)c1 [Example 16, 4-(2-((6-(Pyrrolidin-1-yl)pyridin-2-yl)methoxy)quinazolin-4-yl)morpholine] |
| 7 | CN(C)c1nc(OCc2cccc(N3CCCC3)n2)nc2ccc(Cl)cc12 [Example 17, 6-Chloro-N,N-dimethyl-2-((6-(pyrrolidin-1-yl)pyridin-2-yl)methoxy)quinazolin-4-amine] |
| 6.3 | Clc1ccc2nc(/C=C/c3cccc(N4CCCC4)n3)nc(N3CCOCC3)c2c1 [Example 19, (E)-4-(6-Chloro-2-(2-(6-(pyrrolidin-1-yl)pyridin-2-yl)vinyl)quinazolin-4-yl)morpholine] |
| 3.3 | Clc1ccc2nc(CCc3cccc(N4CCCC4)n3)nc(N3CCOCC3)c2c1 [Example 20, 4-(6-Chloro-2-(2-(6-(pyrrolidin-1-yl)pyridin-2-yl)ethyl)quinazolin-4-yl)morpholine] |
| 46 | c1cc(CCc2nc(N3CCOCC3)c3ccccc3n2)nc(N2CCCC2)c1 [Example 21, 4-(2-(2-(6-(Pyrrolidin-1-yl)pyridin-2-yl)ethyl)quinazolin-4-yl)morpholine] |
| 100 | O=c1[nH]c(CCc2cccc(N3CCCC3)n2)nc2ccc(Cl)cc12 [Example 29, 6-Chloro-2-(2-(6-(pyrrolidin-1-yl)pyridin-2-yl)ethyl)quinazolin-4(3H)-one] |
| 27 | CC1CCCN1c1cccc(/C=C/c2nc(N(C)C)c3cc(Cl)ccc3n2)n1 (stereo not drawn) [Example 35, (E)-6-Chloro-N,N-dimethyl-2-(2-(6-(2-methylpyrrolidin-1-yl)pyridin-2-yl)vinyl)quinazolin-4-amine] |
| 81 | CC1CCCN1c1cccc(CCc2nc(N(C)C)c3cc(Cl)ccc3n2)n1 (stereo not drawn) [Example 38, 6-Chloro-N,N-dimethyl-2-(2-(6-(2-methylpyrrolidin-1-yl)pyridin-2-yl)ethyl)quinazolin-4-amine] |
